For one series, the system named is U-87MG. Put plainly: MTT test, U-87MG. It counts as cell-based. To be noted: Homo sapiens, 10^−5 M, 72 hours, control = 100%, mean ± SEM, read-out: average optical density (MTT), percentage relative to control. On the procedure: (§1) The influence of the compounds of formulae (I) and (Ia) on non-clonogenic cells was evaluated with the aid of the MTT calorimetric test.
(§2) The principle of the MTT test is based on the mitochondrial reduction, by the metabolically active live cells, of the yellow-colored product MTT (3-(4,5-dimethylthiazol-2-yl)-2,5-diphenyltetrazolium bromide) to a blue-colored product, formazan. The amount of formazan thus obtained is directly proportional to the amount of live cells present in the culture well(s). This amount of formazan is measured by spectrophotometry.
(§3) The cell lines are maintained as a monolayer culture at 37° C. in stoppered culture dishes containing MEM 25 MM HEPES (Minimum Essential Medium) base medium. This medium is suited to the growth of a range of various mammalian diploid or primary cells. This medium is then supplemented with:
(§4) an amount of 5% of FCS (Foetal Calf Serum) decomplemented at 56° C. for 1 hour,
(§5) 0.6 mg/ml of L-glutamine,
(§6) 200 μg/ml of streptomycin,
(§7) The 12 human cancer cell lines which were used were obtained from the American Type Culture Collection (ATCC, Rockville, Md., USA). These 12 cell lines are:
(§8) U-373MG (code ATCC: HTB-17) and U-87MG (code ATCC: HTB-14) which are two glioblastomas,
(§9) Experimentally: 100 μl of a cell suspension containing 20 000 to 50 000 (depending on the cell type used) cells/ml of culture medium are inoculated in 96-well flat-bottomed multi-well plates and are incubated at 37° C., under an atmosphere comprising 5% CO2 and 70% humidity. After incubation for 24 hours, the culture medium is replaced with 100 μl of fresh medium containing either the various test compounds at concentrations ranging from 10^−5 to 10^−10 M or the solvent used to dissolve the test products (control condition). After incubation for 72 hours under the above conditions, the culture medium is replaced with 100 μl of a yellowish solution of MTT dissolved at a rate of 1 mg/ml in RPMI 1640. The microplates are reincubated for 3 hours at 37° C. and are then centrifuged for 10 minutes at 400×g. The yellowish solution of MTT is removed and the blue formazan crystals formed in the cell are dissolved in 100 μl of DMSO. The microplates are then shaken for 5 minutes. The intensity of the resulting blue coloration, and thus of the conversion of the yellow product MTT into blue formazan by the cells that are still alive at the end of the experiment, is quantified by spectrophotometry using a Dynatech Immunoassay System machine at wavelengths of 570 nm and 630 nm corresponding, respectively, to the maximum absorption wavelengths of formazan and to the background noise. Software incorporated in the spectrophotometer calculates the average optical density values and the standard deviation (SD) and standard error of mean (SEM) values.
(§10) By way of example, the results of the average optical density, expressed as a percentage relative to the average optical density measured under the control condition (set equal to 100%), obtained at a concentration of 10^−5 M on the 12 abovementioned tumor cell lines are given in Table II.
(In general: Tetrazolium assays rely on reduction of a dye to a coloured formazan, in cell work by metabolically active cells.)

The next series has as its system U-373MG. The series can be described thus: MTT test, U-373MG. To be noted: Homo sapiens, U373 MG, 10^−5 M, 72 hours, control = 100%, mean ± SEM, read-out: average optical density (MTT), percentage relative to control. It counts as cell-based. On the procedure: as §1, §2, §3, §4, §5, §6, §7, §8, §9, §10
The next series relates to SW1088. Put plainly: MTT test, SW1088. It is filed as cell-based. The note with it: Homo sapiens, 10^−5 M, 72 hours, control = 100%, mean ± SEM, read-out: average optical density (MTT), percentage relative to control. As for the experimental part: as §1, §2, §3, §4, §5, §6, §7
SW1088 (code ATCC: HTB-12) which is an astrocytoma,
as §9, §10

A further series deals with T24. Put plainly: MTT test, T24. It counts as cell-based. The note with it: Homo sapiens, T-24, 10^−5 M, 72 hours, control = 100%, mean ± SEM, read-out: average optical density (MTT), percentage relative to control. On the procedure: as §1, §2, §3, §4, §5, §6, §7
(§11) J82 (code ATCC: HTB-1) and T24 (code ATCC: HTB-4) which are two bladder cancers,
as §9, §10

The next series concerns J82. The series can be described thus: MTT test, J82. To be noted: Homo sapiens, 10^−5 M, 72 hours, control = 100%, mean ± SEM, read-out: average optical density (MTT), percentage relative to control. It is filed as cell-based. As for the experimental part:
as §1, §2, §3, §4, §5, §6, §7, §11, §9, §10

The next series deals with HCT-15. The series can be described thus: MTT test, HCT-15. To be noted: Homo sapiens, 10^−5 M, 72 hours, control = 100%, mean ± SEM, read-out: average optical density (MTT), percentage relative to control. It counts as cell-based. As for the experimental part:
as §1, §2, §3, §4, §5, §6, §7
(§12) HTC-15 (code ATCC: CCL-225) and LoVo (code ATCC: CCL-229) which are two colorectal cancers,
as §9, §10

The subject of a further series is LoVo. The series can be described thus: MTT test, LoVo. It is filed as cell-based. The note with it: Homo sapiens, 10^−5 M, 72 hours, control = 100%, mean ± SEM, read-out: average optical density (MTT), percentage relative to control. On the procedure: as §1, §2, §3, §4, §5, §6, §7, §12, §9, §10
The test system of the next series is MCF7. Put plainly: MTT test, MCF7. It is filed as cell-based. The note with it: Homo sapiens, 10^−5 M, 72 hours, control = 100%, mean ± SEM, read-out: average optical density (MTT), percentage relative to control. As for the experimental part:
as §1, §2, §3, §4, §5, §6, §7
(§13) T-47D (code ATCC: HTB-133) and MCF7 (code ATCC: HTB-22) which are two breast cancers,
as §9, §10

The test system of the next series is T-47D. The series can be described thus: MTT test, T-47D. It counts as cell-based. To be noted: Homo sapiens, T47D, 10^−5 M, 72 hours, control = 100%, mean ± SEM, read-out: average optical density (MTT), percentage relative to control. As for the experimental part: as §1, §2, §3, §4, §5, §6, §7, §13, §9, §10
The next series relates to A549. Put plainly: MTT test, A549. It counts as cell-based. To be noted: Homo sapiens, 10^−5 M, 72 hours, control = 100%, mean ± SEM, read-out: average optical density (MTT), percentage relative to control. As for the experimental part: as §1, §2, §3, §4, §5, §6, §7
(§14) A549 (code ATCC: CCL-185) and A-427 (code ATCC: HTB-53) which are two non-small-cell lung cancers,
as §9, §10

For the next series, the system named is A-427. Put plainly: MTT test, A-427. It is filed as cell-based. To be noted: Homo sapiens, 10^−5 M, 72 hours, control = 100%, mean ± SEM, read-out: average optical density (MTT), percentage relative to control. On the procedure: as §1, §2, §3, §4, §5, §6, §7, §14, §9, §10
The next series concerns PC-3. Put plainly: MTT test, PC-3. It is filed as cell-based. The note with it: Homo sapiens, 10^−5 M, 72 hours, control = 100%, mean ± SEM, read-out: average optical density (MTT), percentage relative to control. As for the experimental part: as §1, §2, §3, §4, §5, §6, §7
PC-3 (code ATCC: CRL-1435) which is a prostate cancer.
as §9, §10

Series [1] can be described thus: Determination of the maximum tolerated dose (MTD). The note with it: mouse, in vivo, ip; B6D2F1/Jico mice; single intraperitoneal administration, 2.5 to 160 mg/kg; survival over 14 days. As for the experimental part: 3.—Determination of the Maximum Tolerated Dose (MTD):
The evaluation of the maximum tolerated dose was carried out on 4- to 6-week-old B6D2F1/Jico mice. The compounds were administered intraperitoneally at increasing doses graduating from 2.5 to 160 mg/kg. The value of the MTD (expressed in mg/kg) is determined from the observation of the survival rate of the animals over a 14-day period after a single administration of the product under consideration. The weight change of the animals is also monitored during this period. When the value of the MTD is greater than 160 mg/kg, the MTD value is likened to 160 mg/kg by default.
The results of the estimation of the maximum tolerated dose (MTD) are collated in the following table: […]

A word on the MTD: it is the highest dose tested that stayed within the study's limit of toxicity. Higher therefore signals a wide tolerated range. `COc1ccc(-c2cc3c(OC)cc(OC)c4c3n(c2=O)CCC4=O)cc1` [CRL8285, 8,10-Dimethoxy-6-(4-methoxyphenyl)-2,3-dihydro-1H,5H-pyrido[3,2,1-ij]quinoline-1,5-dione]: the viability at 10 µM worked out at 85.1 ± 2% in the series on U-87MG; 96.9 ± 1.6% in the series with U-373MG; 89.8 ± 2.7% in the series with SW1088; 72.7 ± 1.8% in the series with T24; 68.7 ± 2.9% in the series with J82; 90.6 ± 1.6% with HCT-15. In addition, the viability at 10 µM was 103 ± 3.1% with LoVo; 83.7 ± 2.3% in the series on MCF7; 89.3 ± 1.7% in the series on T-47D; 92.5 ± 3.5% in the series with A549; 78.4 ± 1.6% in the series on A-427; 93.4 ± 1.8% in the series with PC-3. The MTD at 14 day in series [1] was over 160 mg/kg.

In the case of `Oc1ccc(-c2cc3c(O)cc(O)cc3nc2O)cc1` [CRL8311, 5,7-Dihydroxy-3-(4-hydroxyphenyl)-1,2-dihydro-2-quinolinone], the viability at 10 µM with U-87MG was found to be 91.8 ± 1.3%; in the series with U-373MG, 113 ± 2.5%; in the series with SW1088, 80.7 ± 1.7%; with T24, 90 ± 1.9%; in the series on J82, 127 ± 1.9%; in the series on HCT-15, 101 ± 3.6%. Further, the viability at 10 µM with LoVo amounted to 77.9 ± 1.7%; in the series with MCF7, 98.8 ± 2.3%; in the series on T-47D, 108 ± 6.6%; in the series with A549 it was 106 ± 2.4%; in the series with A-427 it was 89.7 ± 2%; with PC-3, 122 ± 3.5%. In [1], this compound showed an MTD at 14 day of over 160 mg/kg.

Turning to `CCOC(=O)Cn1c(=O)c(-c2ccc(OC)cc2)cc2c(OC)cc(OC)cc21` [CRL8314], the viability at 10 µM came to 74.5 ± 3.4% with U-87MG; 89.2 ± 2% with U-373MG; 85.4 ± 2.5% in the series on SW1088; 61.9 ± 2.5% with T24; 33.2 ± 1.2% in the series on J82; 116 ± 4.4% in the series on HCT-15. Moreover, the viability at 10 µM in the series on LoVo was found to be 82.9 ± 2.5%; in the series with MCF7, 72.2 ± 2%; with T-47D, 114 ± 2.3%; with A549 it was 85.2 ± 1.4%; in the series with A-427, 104 ± 3.1%; with PC-3, 88.6 ± 1.4%. In addition, the MTD at 14 day in [1] is over 160 mg/kg.

`COc1ccc(-c2cc3c(OC)cc(OC)cc3n(CC(=O)O)c2=O)cc1` [CRL8317, 2-[5,7-Dimethoxy-3-(4-methoxyphenyl)-2-oxo-1,2-dihydro-1-quinolinyl]acetic Acid]: the viability at 10 µM turned out to be 91 ± 4.1% in the series on U-87MG; 91.2 ± 1.9% with U-373MG; 103 ± 2.3% with SW1088; 91.4 ± 4.3% in the series on T24; 83.6 ± 1.8% in the series with J82; 104 ± 2.6% in the series on HCT-15. In addition, the viability at 10 µM in the series on LoVo turned out to be 86.8 ± 2.8%; in the series on MCF7 it was 96 ± 2.1%; with T-47D, 95 ± 2.5%; in the series with A549, 94.7 ± 2.2%; with A-427, 91.3 ± 2%; with PC-3, 97.9 ± 1.1%. For the same compound, the MTD at 14 day in [1] is over 160 mg/kg.

With `COC(=O)CCn1c(=O)c(-c2ccc(OC)cc2)cc2c(OC)cc(OC)cc21` [CRL8318], the viability at 10 µM with U-87MG was found to be 78.1 ± 2.4%; in the series on U-373MG, 89.9 ± 1.3%; in the series with SW1088, 75.2 ± 3%; in the series with T24, 81.8 ± 1.4%; in the series with J82, 72.8 ± 1.2%; in the series with HCT-15, 113 ± 1.7%. Besides, the viability at 10 µM in the series on LoVo is 75.2 ± 2.3%; with MCF7, 105 ± 2.4%; in the series on T-47D, 100 ± 3.9%; in the series with A549, 86.6 ± 2.5%; with A-427, 74 ± 3%; with PC-3, 79.2 ± 2.8%. In [1], this compound displayed an MTD at 14 day of over 160 mg/kg.

The values above are taken from patent US6593342B1, “Pharmaceutical compositions comprising 2-quinolones” (Laboratoire L. Lafon, priority 1998, dated 2003).
